# Where a name gives a salt, the structure may show the parent alone. Non-standard residues stand in square brackets, D forms with d. Residues, ends and D or L forms follow the SMILES beside them. *: point of attachment. Arg(NO2) = N=C(NCCC[C@H](N)C(=O)O)N[N+](=O)[O-]; X1 = CCCCO*
# How the values were obtained:
# [1] = tested on: young Sprague Dawley rats; experiment: Anti-obese activity, transdermal, young female Sprague Dawley rats (second experiment); type: in vivo, rat; settings: for effect on overweight of young rats (in words): 10, 1 or 0.3 mg/kg transdermal twice per day for 30 days; for Food intake (per day & per rat) / Weight (g) (Day 30) / Weight (g) (Day 1): young rats; for Weight (g) (Day 1): baseline
# Description: In a second experiment, 40 young female Sprague Dawley (SD) rats (180-225 g) were divided into 4 groups. In group A, 0.2 ml of water was administered to the back of rat (n=10) twice per day for 30 days. In Groups B, C, and D, 10 mg/kg, 1 mg/kg, or 0.3 mg/kg of H-Val-Pro-Gly-Pro-Arg(NO2)—OCH(CH3)2.HCl(SEQ ID NO: 197) in 0.2 ml of water were administered transdermally to the backs of rats (n=10) twice per day for 30 days respectively.
# In a second experiment, 40 young female Sprague Dawley (SD) rats (180-230 g) were divided into 4 groups. In group A, 0.2 ml of water was administered to the back of rat (n=10) twice per day for 30 days. In Groups B, C, and D, 10 mg/kg, 1 mg/kg, or 0.3 mg/kg of H-Val-Pro-Gly-Pro-Arg(diAc)-OCH2CH2CH2CH3.HCl(SEQ ID NO: 198) in 0.2 ml of water were administered transdermally to the backs of rats (n=10) twice per day for 30 days.
# In a second experiment, 40 young female Sprague Dawley (SD) rats (182-223 g) were divided into 4 groups. In group A, 0.2 ml of water was administered to the back of rat (n=10) twice per day for 30 days. In Groups B, C, and D, 10 mg/kg, 1 mg/kg, or 0.3 mg/kg of H-Ala-Pro-Gly-Pro-Arg(NO2)—OCH2CH2CH2CH3.HCl(SEQ ID NO: 199) in 0.2 ml of water was administered transdermally to the backs of rats (n=10) twice per day for 30 days respectively.
# In a second experiment, 40 young female Sprague Dawley (SD) rats (185-220 g) were divided into 4 groups. In group A, 0.2 ml of water was administered to the back of rat (n=10) twice per day for 30 days. In Groups B, C, and D, 10 mg/kg, 1 mg/kg, or 0.3 mg/kg of H-Val-Pro-Asp(OEt)-Pro-Arg(NO2)-OCH2CH2CH2CH3.HCl(SEQ ID NO: 200) in 0.2 ml of water were administered transdermally to the backs of rats (n=10) twice per day for 30 days.
# [2] = tested on: obese mice (SLAC/DB/DB); experiment: Anti-obese activity, transdermal, obese female DB/DB mice (third experiment); type: in vivo, mouse; settings: for Weight (g) (Day 1) / Blood Glucose Levels (day 1) (mg/dL, no fasting): baseline; for effect on body weights and blood glucose levels of obese mice (in words): 15, 1.5 and 0.5 mg/kg transdermal twice per day for 30 days
# Description: In a third experiment, 40 obese female DB/DB mice (SLAC/DB/DB mice, 16 weeks old, 55-60 g) were divided into 4 groups. In group A, 0.1 ml of water was administered to the back of mouse (n=10) twice per day for 30 days. In Groups B, C, and D, 15 mg/kg, 1.5 mg/kg, and 0.5 mg/kg of H-Val-Pro-Gly-Pro-Arg(NO2)-OCH(CH3)2.HCl(SEQ ID NO: 197) in 0.1 ml of water was administered transdermally to the back of mouse (n=10) twice per day for 30 days respectively.
# In a third experiment, 40 obese female DB/DB mice (SLAC/DB/DB) mice (16 weeks old, 55-60 g) were divided into 4 groups. In group A, 0.1 ml of water was administered to the back of mouse (n=10) twice per day for 30 days. In Groups B, C, and D, 15 mg/kg, 1.5 mg/kg, and 0.5 mg/kg of H-Val-Pro-Gly-Pro-Arg(diAc)-OCH2CH2CH2CH3.HCl(SEQ ID NO: 198) in 0.1 ml of water was administered transdermally to the back of mouse (n=10) twice per day for 30 days respectively.
# In a third experiment, 40 obese female DB/DB mice (SLAC/DB/DB) mice (16 weeks old, 53-61 g) were divided into 4 groups. In group A, 0.1 ml of water was administered to the back of mouse (n=10) twice per day for 30 days. In Groups B, C, and D, 15 mg/kg, 1.5 mg/kg, and 0.5 mg/kg of H-Ala-Pro-Gly-Pro-Arg(NO2)—OCH2CH2CH2CH3.HCl(SEQ ID NO: 199) in 0.1 ml of water was administered transdermally to the back of mouse (n=10) twice per day for 30 days respectively.
# In a third experiment, 40 obese female DB/DB mice (SLAC/DB/DB) mice (16 weeks old, 53-61 g) were divided into 4 groups. In group A, 0.1 ml of water was administered to the back of mouse (n=10) twice per day for 30 days. In Groups B, C, and D, 15 mg/kg, 1.5 mg/kg, and 0.5 mg/kg of H-Val-Pro-Asp(OEt)-Pro-Arg(NO2)-OCH2CH2CH2CH3.HCl(SEQ ID NO: 200) in 0.1 ml of water was administered transdermally to the back of mouse (n=10) twice per day for 30 days respectively.
# [3] = 0.3 mg/kg transdermal twice per day for 30 days
# [4] = 0.3 mg/kg transdermal twice per day
# [5] = 1 mg/kg transdermal twice per day for 30 days
# [6] = 1 mg/kg transdermal twice per day
# [7] = 10 mg/kg transdermal twice per day for 30 days
# [8] = 10 mg/kg transdermal twice per day
# [9] = 0.5 mg/kg transdermal twice per day for 30 days
# [10] = 0.5 mg/kg transdermal twice per day
# [11] = 1.5 mg/kg transdermal twice per day for 30 days
# [12] = 1.5 mg/kg transdermal twice per day
# [13] = 15 mg/kg transdermal twice per day for 30 days
# [14] = 15 mg/kg transdermal twice per day
Structure (SMILES),effect on overweight of young rats (in words) [1],"Food intake (per day & per rat) [1, 3]","Weight (g) (Day 30) [1, 3]","Weight (g) (Day 1) [1, 4]","Food intake (per day & per rat) [1, 5]","Weight (g) (Day 30) [1, 5]","Weight (g) (Day 1) [1, 6]","Food intake (per day & per rat) [1, 7]","Weight (g) (Day 30) [1, 7]","Weight (g) (Day 1) [1, 8]","Weight (g) (Day 30) [2, 9]","Blood Glucose Levels (day 30) (mg/dL, no fasting) [2, 9]","Weight (g) (Day 1) [2, 10]","Blood Glucose Levels (day 1) (mg/dL, no fasting) [2, 10]","Weight (g) (Day 30) [2, 11]","Blood Glucose Levels (day 30) (mg/dL, no fasting) [2, 11]","Weight (g) (Day 1) [2, 12]","Blood Glucose Levels (day 1) (mg/dL, no fasting) [2, 12]","Weight (g) (Day 30) [2, 13]","Blood Glucose Levels (day 30) (mg/dL, no fasting) [2, 13]",further results
CCCCOC(=O)[C@H](CCCNC(=N)N[N+](=O)[O-])NC(=O)[C@@H]1CCCN1C(=O)CNC(=O)[C@@H]1CCCN1C(=O)[C@H](C)N [H-Ala-Pro-Gly-Pro-Arg(NO2)—OCH2CH2CH2CH3.HCl] (HELM PEPTIDE1{A.P.G.P.[N=C(NCCC[C@H](N[*:1])C(=O)[*:2])N[N+](=O)[O-]].[CCCCO[*:1]]}$$$$V2.0),controlled overweight of rats effectively,21.3 ± 2.2,326.2 ± 4.8 g,194.1 ± 4.5 g,20.3 ± 2.7,321.7 ± 4.0 g,192.6 ± 4.1 g,19.5 ± 2.3,305.4 ± 4.7 g,193.7 ± 4.2 g,54.7 ± 2.7 g,159.4 ± 24.4 mg/dL,58.4 ± 2.9 g,197.6 ± 28.2 mg/dL,53.3 ± 3.2 g,148.4 ± 16.4 mg/dL,57.1 ± 2.8 g,199.4 ± 23.7 mg/dL,51.9 ± 2.7 g,139.5 ± 15.9 mg/dL,"Weight (g) (Day 1) [2, 14]: 57.2 ± 2.2 g; Blood Glucose Levels (day 1) (mg/dL, no fasting) [2, 14]: 202.4 ± 21.4 mg/dL; effect on body weights and blood glucose levels of obese mice (in words) [2]: reduced body weights and blood glucose levels of obese mice effectively"
CCCCOC(=O)[C@H](CCCNC(=N)N[N+](=O)[O-])NC(=O)[C@@H]1CCCN1C(=O)[C@H](CC(=O)OCC)NC(=O)[C@@H]1CCCN1C(=O)[C@@H](N)C(C)C [H-Val-Pro-Asp(OEt)-Pro-Arg(NO2)—OCH2CH2CH2CH3.HCl] (H-VPD(OEt)P[Arg(NO2)]-X1),controlled overweight of rats effectively,22.7 ± 2.9,336.6 ± 5.8 g,192.1 ± 4.6 g,21.3 ± 2.1,325.4 ± 4.9 g,193.2 ± 4.7 g,20.4 ± 2.7,315.4 ± 6.7 g,191.2 ± 5.2 g,56.7 ± 2.8 g,171.8 ± 28.4 mg/dL,58.7 ± 3.3 g,199.6 ± 31.5 mg/dL,54.3 ± 2.9 g,152.4 ± 26.8 mg/dL,58.8 ± 3.1 g,203.4 ± 25.8 mg/dL,52.4 ± 3.4 g,145.4 ± 25.7 mg/dL,"Weight (g) (Day 1) [2, 14]: 57.9 ± 3.8 g; Blood Glucose Levels (day 1) (mg/dL, no fasting) [2, 14]: 203.4 ± 27.4 mg/dL; effect on body weights and blood glucose levels of obese mice (in words) [2]: reduced body weights and blood glucose levels of obese mice effectively"
"CC(C)OC(=O)[C@H](CCCNC(=N)N[N+](=O)[O-])NC(=O)[C@@H]1CCCN1C(=O)CNC(=O)[C@@H]1CCCN1C(=O)[C@@H](N)C(C)C [H-Val-Pro-Gly-Pro-Arg(NO2)-OCH(CH3)2•HCl, H-Val-Pro-Gly-Pro-Arg(NO2)—OCH(CH3)2.HCl] (HELM PEPTIDE1{V.P.G.P.[N=C(NCCC[C@H](N[*:1])C(=O)[*:2])N[N+](=O)[O-]].[CC(C)O[*:1]]}$$$$V2.0)",controlled overweight of young rats effectively,21.8 ± 2.7,327.2 ± 3.8 g,195.1 ± 5.5 g,20.1 ± 2.8,323.1 ± 4.5 g,191.6 ± 4.7 g,19.8 ± 3.3,307.4 ± 5.7 g,192.7 ± 6.2 g,54.2 ± 2.9 g,153.4 ± 26.4 mg/dL,56.2 ± 2.7 g,199.7 ± 26.8 mg/dL,52.3 ± 1.9 g,142.4 ± 18.7 mg/dL,57.2 ± 2.1 g,201.4 ± 23.1 mg/dL,52.1 ± 2.2 g,137.4 ± 25.2 mg/dL,"Weight (g) (Day 1) [2, 14]: 57.7 ± 1.6 g; Blood Glucose Levels (day 1) (mg/dL, no fasting) [2, 14]: 206.4 ± 21.8 mg/dL; effect on body weights and blood glucose levels of obese mice (in words) [2]: reduced body weights and blood glucose levels of obese mice effectively"

# From US9248109B2, “High penetration prodrug compositions of peptides and peptide-related compounds” (priority 2009, dated 2016)
